Assay results as given in patent US7671058B2, “N-(3,4-disubstituted phenyl) salicylamide derivatives” (Institute of Medicinal Molecular Design, Inc., priority 2006, dated 2010).
Read-outs that look alike come from different tables or passages of the source.

Assays:
STAT6 = STAT6 inhibition test: (GLS)x8/pTA-Luc luciferase reporter in U2-OS cells stimulated with human IL-4; assay type: cell-based; settings: human IL-4 40 ng/mL; for Inhibition Rate of STAT6 (%) / inhibition at 2 µM: compound 2 μM, 8 hours; for IC50: from inhibition rates at 1, 0.1, 0.01 and 0.001 μM, read-out: IC50 against activation of STAT6; for inhibition at 2 µM: read-out: Inhibition Rate of STAT6 (%)
Source text: (1) Construction of a STAT6 Reporter Plasmid
The Oligonucleotides (SEQ ID: 1, 2) containing two copies of STAT6 binding sequences (refer to J. Biol. Chem., vol. 276, No. 9, pp. 6675-6688 (2001).) were synthesized, and integrated into the enhancer region of the reporter plasmid pTA-Luc Vector (CLONTECH Laboratories, Inc.) at the restriction enzyme BgIII site.
When the oligonucleotide is integrated in positive direction into the plasmid, the upstream BglII site is not reconstructed. Therefore, STAT6 binding sequences can be increased by repeating integration of the oligonucleotide at the restriction enzyme BglII site.
In the present test, a plasmid including eight integrated STAT6 binding sequences was constructed and provided for the reporter assay as (GLS)x8/pTA-Luc. Confirmation of the sequences was carried out using an automated fluorescence sequencer (Model 310 (Applied Biosystems)).
(2) Transfection into U2-OS Cells and Inhibition Test for STAT6 Activation
U2-OS cells were seeded to at 2×10^4 cells/well in 96-well culture plates, and transfection was carried out using FuGENE 6 Transfection Reagent (Roche Diagnostics GmbH). The procedures of the transfection are shown below.
11 μg of reporter plasmid ((GLS)x8/pTA-Luc) and 1.1 μg of pCMV β (CLONTECH Laboratories, Inc.) were mixed in 1.1 mL of OPTI-MEM I medium (GIBCO BRL) (solution (A)).
33 μL of FuGENE 6 Transfection Reagent was mixed in 1.1 mL of OPTI-MEM I medium (solution (B)).
(§1) The above solution (A) and solution (B) were mixed, let them stand for 15 minutes at room temperature, then, 8.8 mL of OPTI-MEM I medium was added and diluted.
To this transfection solution, U2-OS cell suspension (11 mL) in McCoy's 5A medium (GIBCO BRL) containing 10% Fetal Bovine Serum (FBS; GIBCO BRL) at 2×10^5 cells/mL was added and well mixed.
(§2) 0.2 mL of the above solution was dispensed into each well of 96-well culture plates, and incubated for 24 hours (37° C., 5% CO2).
After removal of 50 μL of medium from each well, 50 μL of McCoy's 5A medium (serum-free) containing compound, of the present application was added to a final concentration of 0.01˜2 μM (0.001, 0.01, 0.1, 0.5, 1 or 2 μM), and the plates were incubated for 2 hours (37° C., 5% CO2).
10 μL of the McCoy's 5A medium (serum-free) containing human IL-4 (R&D Systems, Inc) was added to each well to achieve a final concentration of 40 ng/mL, and incubated for 8 hours (37° C., 5% CO2).
(§3) Medium was completely removed and plates were preserved at −80° C. until measurements.
(§4) Cell lysates were prepared by adding 40 μL of Passive Lysis Buffer (Promega Corporation) to each well.
(§5) 10 μL of each lysate was transferred to 96-well white plates. 50 μL of PicaGene L.T.2.0 (TOYO INK MFG. CO., LTD.) was added to each well, then, luminescence was measured after leaving for 10 minutes at room temperature.
(§6) 10 μL of each lysate was transferred to 96-well black plates. 100 μL of Z Buffer (preparation method will be explained later) was added to each well, and fluorescence was measured immediately.
(§7) 10 μL of each lysate was transferred to 96-well clear plates. 200 μL of protein assay reagent prepared from the BCA Protein Assay Kit (Pierce Biotechnology, Inc.) was added to each well, and, absorbance was measured after incubation for 30 minutes at 37° C.
(§8) For measurements of luminescence, fluorescence, and absorbance, microplate reader GENios (TECAN G.M.B.H.) was used.
(4) Calculation of Inhibition Rate
Luminescence values that show the degree of activation by IL-4 stimulation were normalized by β-gal values that show transfection efficiency. Using the normalized values, the following calculations were carried out using the luminescence values increased by IL-4 stimulation. Inhibition Rate(%)=[…] E: In the presence of the compound of the present application, increased luminescence value by IL-4 stimulation C: Without the presence of the compound of the present application, increased luminescence value by IL-4 stimulation […]

NF-κB = NF-κB inhibition test: pNFκB-Luc luciferase reporter in U2-OS cells stimulated with human TNF α; assay type: cell-based; settings: human TNF α 10 ng/mL; for Inhibition Rate of NF-κB (%) / inhibition at 2 µM: compound 2 μM, 8 hours; for IC50: from inhibition rates at 1, 0.1, 0.01 and 0.001 μM, read-out: IC50 against activation of NF-κB; for inhibition at 2 µM: read-out: Inhibition Rate of NF-κB (%)
Method: (1) Transfection to U2-OS Cells and Inhibition Test of Activation
U2-OS cells were seeded at 2×10^4 cells/well in 96-well culture plate, and transfection was carried out using FuGENE 6 Transfection Reagent (Roche Diagnostics GmbH). The procedures of the transfection are shown below.
11 μg of reporter plasmid (pNFκB-Luc; Stratagene Corporation) and 1.1 μg of pCMV β (CLONTECH Laboratories, Inc.) were mixed in 1.1 mL of OPTI-MEM I medium (GIBCO BRL) (solution (A)).
[…] of FuGENE 6 Transfection Reagent was mixed in 1.1 mL of OPTI-MEM I medium (solution (B)).
as §1
To this transfection solution, U2-OS cell suspension (11 mL) in McCoy's 5A medium (GIBCO BRL) containing 10% Fetal Bovine Serum (FBS; GIBCO BRL) at […] was added and well mixed.
as §2
After removal of 50 μL of medium from each well, 50 μL of McCoy's 5A medium (serum-free) containing compound of the present application was added to a final concentration of 0.01˜2 μM (0.001, 0.01, 0.1, 0.5, 1 or 2 μM), and the plates were incubated for 2 hours (37° C., 5% CO2).
10 μL of the McCoy's 5A medium (serum-free) containing human TNF α (PEPROTECH EC Ltd.) was added to each well to achieve a final concentration of 10 ng/mL, and incubated for 8 hours (37° C., 5% CO2).
as §3, §4, §5, §6, §7, §8
(3) Calculation of Inhibition Rate
Luminescence values that show the degree of activation by TNF α stimulation were normalized by β-gal values that show transfection efficiency. Using the normalized values, the following calculation was carried out using the luminescence values that increased by TNF α stimulation. Inhibition Rate(%)=[…] E: In the presence of the compound of the present application, increased luminescence values by TNF α stimulation C: Without the presence of the compound of the present application, increased luminescence values by TNF α, stimulation
The values of protein assay by BCA reagent were used for a simple assessment of cytotoxicity, and not used for the calculation of inhibition rates.
NF-κB Inhibition Rates are shown below. The values in parentheses in the table represent the concentration of the compound of the present application.
NF-κB inhibition rates where the concentrations of the compound of the present application were 1, 0.1, 0.01 and 0.001 μM were calculated, and the 50% inhibitory concentrations (IC50) of the compounds of the present application against activation of NF-κB were evaluated.

Row | IC50 (STAT6) [nM] | IC50 (NF-κB) [nM] | Structure (SMILES) | Inhibition Rate of STAT6 (%) (STAT6) | Inhibition Rate of NF-κB (%) (NF-κB) | further results
1 | 25.5 | 21.9 | CC1CNCCN1c1ccc(NC(=O)c2cc(Cl)ccc2O)cc1F.Cl (stereo not shown) [compound 88] | 90 (2 μM) % | 90 (2 μM) % | 
2 |  |  | O=C(Nc1ccc(OC2CCCCC2)c(F)c1)c1cc(Cl)ccc1O [compound 10] | 76 (2 μM) % | 45 (2 μM) % | 
3 |  |  | CN1CCN(c2ccc(NC(=O)c3cc(C#N)ccc3O)cc2F)CC1.Cl [compound 90] | 11 (2 μM) % | 18 (2 μM) % | 
4 | 7.29 | 8.44 | CN1CCCN(c2ccc(NC(=O)c3ccc(Cl)cc3O)cc2F)CC1 [compound 77] | 90 (2 μM) % | 89 (2 μM) % | 
5 | 15 | 25.2 | CN1CCN(c2ccc(NC(=O)c3cc(Cl)ccc3O)cc2F)CC1 [compound 12] | 94 (2 μM) % | 91 (2 μM) % | 
6 | 91.9 | 147 | Cc1cc(NC(=O)c2cc(Cl)ccc2O)ccc1N1CCN(C)CC1.Cl [compound 18] | 79 (2 μM) % | 67 (2 μM) % | 
7 | 6.37 | 12.2 | O=C(Nc1ccc(OC2CCNCC2)c(F)c1)c1cc(Cl)ccc1O [compound 31] | 93 (2 μM) % | 92 (2 μM) % | 
8 |  |  | O=C(Nc1ccc(N2CCNCC2)c(F)c1)c1cc(Cl)ccc1O [Compound 22] |  |  | inhibition at 2 µM (STAT6; U2OS): 85%; IC50 (STAT6; U2OS): 82.3 nM; inhibition at 2 µM (NF-κB; U2OS): 82%; IC50 (NF-κB; U2OS): 80.8 nM
9 |  |  | CC1CN(c2ccc(NC(=O)c3cc(Cl)ccc3O)cc2F)CCN1.Cl (stereo not shown) [compound 73] | 20 (2 μM) % |  | 
10 |  |  | O=C(Nc1ccc(N2CCN(C(=O)CCN3CCCCC3)CC2)c(F)c1)c1cc(Cl)ccc1O [compound 35] | 26 (2 μM) % | 24 (2 μM) % | 
11 | 10.9 | 17.8 | Cl.O=C(Nc1ccc(N2CCCNCC2)c(Cl)c1)c1cc(Cl)ccc1O [compound 81] | 92 (2 μM) % | 90 (2 μM) % | 
12 | 32.9 | 20 | Cl.O=C(Nc1ccc(N2CCCNCC2)c(C(F)(F)F)c1)c1cc(Cl)ccc1O [compound 76] | 95 (2 μM) % | 94 (2 μM) % | 
13 |  |  | CCC1CNCCN1c1ccc(NC(=O)c2cc(Cl)ccc2O)cc1F.Cl (stereo not shown) [compound 89] | 62 (2 μM) % | 62 (2 μM) % | 
14 |  |  | CC1CCC(C)N1c1ccc(NC(=O)c2cc(Cl)ccc2O)cc1F.Cl (stereo not shown) [compound 83] | 80 (2 μM) % | 59 (2 μM) % | 
15 |  |  | CN(C)C1CCN(c2ccc(NC(=O)c3cc(Cl)ccc3O)cc2F)CC1 [Compound 78] |  |  | inhibition at 2 µM (STAT6; U2OS): 46%; inhibition at 2 µM (NF-κB; U2OS): 49%
16 | 82.9 | 113 | CN1CCN(c2ccc(NC(=O)c3cc(Cl)ccc3O)cc2Cl)CC1.Cl [compound 17] | 96 (2 μM) % | 90 (2 μM) % | 
17 | 2.23 | 8.11 | O=C(Nc1ccc(N2CCCNCC2)c(F)c1)c1ccc(Cl)cc1O [compound 80] | 91 (2 μM) % | 89 (2 μM) % | 
18 |  |  | O=C(Nc1ccc(N2CCOCC2)c(C(F)(F)F)c1)c1cc(Cl)ccc1O [compound 3] | 67 (2 μM) % | 30 (2 μM) % | 
19 |  |  | O=C(Nc1ccc(N2CCCCC2)c(Cl)c1)c1cc(Cl)ccc1O [compound 8] | 93 (2 μM) % | 61 (2 μM) % | 
20 |  |  | CN1CCN(c2ccc(NC(=O)c3cc(Cl)ccc3O)cc2C#N)CC1 [compound 79] | 59 (2 μM) % | 59 (2 μM) % | 
21 | 5.88 | 13.7 | Cl.O=C(Nc1ccc(OC2CCNCC2)c(F)c1)c1cc(Cl)ccc1O [compound 32] | 92 (2 μM) % | 91 (2 μM) % | 
22 |  |  | Cl.O=C(Nc1ccc(N2CCC(N3CCCC3)CC2)c(F)c1)c1cc(Cl)ccc1O [compound 15] | 59 (2 μM) % | 53 (2 μM) % | 
23 |  |  | CC1CCCN1c1ccc(NC(=O)c2cc(Cl)ccc2O)cc1F (stereo not shown) [compound 82] | 38 (2 μM) % |  | 
24 |  |  | O=C(Nc1cc(C(F)(F)F)cc(C(F)(F)F)c1)c1cc(Cl)ccc1O [N-[3,5-Bis(trifluoromethyl)phenyl]-5-chloro-2-hydroxybenzamide, reference compound] |  |  | IC50 (NF-κB; U2OS): 385 nM
25 |  |  | CN1CCN(c2ccc(NC(=O)c3ccccc3O)cc2F)CC1.Cl [compound 30] | 19 (2 μM) % |  | 
26 |  |  | Cl.O=C(Nc1ccc(OC2CCCNC2)c(F)c1)c1cc(Cl)ccc1O (stereo not shown) [compound 56] | 19 (2 μM) % |  | 
27 |  |  | Cc1cc(NC(=O)c2cc(Cl)ccc2O)ccc1N1CCCCC1 [compound 9] | 53 (2 μM) % |  | 
